The assay deals with BDF1 mice, P388 leukemia ip, median survival T/C. Kind of assay: NCI In Vivo Anticancer Drug Screen. Data for tumor model P388 Leukemia (intraperitoneal) in B6D2F1 (BDF1) mice. The settings on record: endpoint: median survival time, higher = longer survival. The method, boiled down: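 Transplantable tumour in mice; compound vs vehicle dosing; survival scored; ratio of treated to control reported.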

Setting [1] is: dose: 100.0 mg/kg/injection, schedule: Q01DX009 (ip), vehicle: Klucel (hydroxypropylcellulose) (HPC).
The mark [2] stands for this setting: dose: 100.0 mg/kg/injection, schedule: Q04DX003 (ip), vehicle: Klucel (hydroxypropylcellulose) (HPC).
The mark [3] stands for this setting: dose: 200.0 mg/kg/injection, schedule: Q04DX003 (ip), vehicle: Klucel (hydroxypropylcellulose) (HPC).
The mark [4] stands for this setting: dose: 400.0 mg/kg/injection, schedule: Q01DX009 (ip), vehicle: Klucel (hydroxypropylcellulose) (HPC).
Setting [5] is: dose: 100.0 mg/kg/injection, schedule: Q01DX009 (ip), vehicle: saline.
The mark [6] stands for this setting: dose: 100.0 mg/kg/injection, schedule: Q04DX003 (ip), vehicle: saline.
The mark [7] stands for this setting: dose: 200.0 mg/kg/injection, schedule: Q04DX003 (ip), vehicle: saline.
Where [8] appears, read: dose: 200.0 mg/kg/injection, schedule: Q01DX009 (ip), vehicle: Klucel (hydroxypropylcellulose) (HPC).
Setting [9] is: dose: 12.5 mg/kg/injection, schedule: Q01DX009 (ip), vehicle: saline with Tween-80.
Setting [10] is: dose: 50.0 mg/kg/injection, schedule: Q01DX009 (ip), vehicle: saline with Tween-80.
Where [11] appears, read: dose: 100.0 mg/kg/injection, schedule: Q01DX009 (ip), vehicle: saline with Tween-80.
[12] abbreviates: dose: 200.0 mg/kg/injection, schedule: Q01DX009 (ip), vehicle: saline with Tween-80.

SMILES strings stand for the structures. “And” between values parts separate entries of the source, which are not always exact repeats. Identical values can stand only once. Inconclusive results and toxic doses are left out.

Turning to `COC(=O)/C=C/c1c[nH]c2nccnc12`, the T/C (dose: 25.0 mg/kg/injection, schedule: Q01DX009 (ip), vehicle: water) is 104 % of control; the T/C (dose: 50.0 mg/kg/injection, schedule: Q01DX009 (ip), vehicle: water) is 90 % of control and 112 % of control; the T/C (dose: 100.0 mg/kg/injection, schedule: Q01DX009 (ip), vehicle: water) is 97 % of control and 109 % of control; the T/C (dose: 100.0 mg/kg/injection, schedule: Q04DX003 (ip), vehicle: water) is 86 % of control; the T/C (dose: 200.0 mg/kg/injection, schedule: Q01DX009 (ip), vehicle: water) was 115 % of control; the T/C (dose: 200.0 mg/kg/injection, schedule: Q04DX003 (ip), vehicle: water) is 102 % of control. The T/C (dose: 300.0 mg/kg/injection, schedule: Q01DX009 (ip), vehicle: water) is 106 % of control; the T/C (dose: 400.0 mg/kg/injection, schedule: Q01DX009 (ip), vehicle: water) is 93 % of control; the T/C (dose: 400.0 mg/kg/injection, schedule: Q04DX003 (ip), vehicle: water) is 102 % of control.
As for `CC(=O)Nc1ccc(N=Nc2ccccc2)cc1F`, the T/C under setting [1] was 120 % of control; the T/C under setting [2] is 104 % of control; the T/C under setting [3] was 108 % of control; the T/C under setting [4] was 120 % of control; the T/C (dose: 400.0 mg/kg/injection, schedule: Q04DX003 (ip), vehicle: Klucel (hydroxypropylcellulose) (HPC)) was 95 % of control.
`O=C(CN1CCOCC1)N1CCOCC1`: the T/C runs as follows: under setting [5], 90 % of control; under setting [6], 100 % of control; (dose: 200.0 mg/kg/injection, schedule: Q01DX009 (ip), vehicle: saline) 100 % of control; under setting [7], 95 % of control; (dose: 400.0 mg/kg/injection, schedule: Q01DX009 (ip), vehicle: saline) 100 % of control; (dose: 400.0 mg/kg/injection, schedule: Q04DX003 (ip), vehicle: saline) 104 % of control.
As to `CNC(=O)O/N=C(\CN=[N+]=[N-])C(C)(C)C`, the T/C (dose: 0.2 mg/kg/injection, schedule: Q01DX009 (ip), vehicle: saline) was 92 % of control; the T/C (dose: 0.39 mg/kg/injection, schedule: Q01DX009 (ip), vehicle: saline) is 88 % of control; the T/C (dose: 0.78 mg/kg/injection, schedule: Q01DX009 (ip), vehicle: saline) is 122 % of control.
In the case of `Cc1ccc(S(=O)(=O)OC2CCC(C(C)(C)C)CC2Cl)cc1` (configuration not stated), the T/C was 105 % of control under setting [1]; 100 % of control under setting [2]; 110 % of control under setting [8]; 86 % of control under setting [3]; 95 % of control under setting [4].
As to `Cc1sc([N+](=O)[O-])cc1[N+](=O)[O-]`, the T/C is, setting by setting: (dose: 25.0 mg/kg/injection, schedule: Q04DX003 (ip), vehicle: Klucel (hydroxypropylcellulose) (HPC)) 91 % of control; (dose: 50.0 mg/kg/injection, schedule: Q04DX003 (ip), vehicle: Klucel (hydroxypropylcellulose) (HPC)) 95 % of control; under setting [2], 91 % of control.
As to `O=[N+]([O-])c1ccc(OCCNS(=O)(=O)c2cccc(S(=O)(=O)F)c2)c(Cl)c1`, the T/C was 110 % of control under setting [9]; 110 % of control under setting [10]; 94 % of control under setting [11]; 99 % of control (dose: 100.0 mg/kg/injection, schedule: Q04DX003 (ip), vehicle: saline with Tween-80); 105 % of control under setting [12]; 99 % of control (dose: 200.0 mg/kg/injection, schedule: Q04DX003 (ip), vehicle: saline with Tween-80). Also, the T/C is 88 % of control (dose: 400.0 mg/kg/injection, schedule: Q01DX009 (ip), vehicle: saline with Tween-80) and 108 % of control (dose: 400.0 mg/kg/injection, schedule: Q04DX003 (ip), vehicle: saline with Tween-80).
Regarding `O=C(Nc1ccc(C2=NCCN2)cc1)c1ccc(C(=O)Nc2ccc(C3=NCCN3)cc2)c([N+](=O)[O-])c1`, the T/C is, setting by setting: (dose: 6.0 mg/kg/injection, schedule: Q01DX010 (ip), vehicle: saline) 163 % of control; (dose: 8.0 mg/kg/injection, schedule: Q01DX010 (ip), vehicle: saline) 168 % of control; (dose: 12.0 mg/kg/injection, schedule: Q01DX010 (ip), vehicle: saline) 113 % of control.
With `C=CCOP(OCC=C)OCC=C`, the T/C reads like this: (dose: 25.0 mg/kg/injection, schedule: Q01DX009 (ip), vehicle: saline) 90 % of control; (dose: 25.0 mg/kg/injection, schedule: Q04DX003 (ip), vehicle: saline) 95 % of control; (dose: 50.0 mg/kg/injection, schedule: Q01DX009 (ip), vehicle: saline) 90 % of control; under setting [5], 104 % of control; under setting [6], 100 % of control.
On to `CN(C)P1(=O)OCCN1N` (configuration not stated), for which the T/C runs as follows: (dose: 50.0 mg/kg/injection, schedule: Q04DX003 (ip), vehicle: saline) 109 % of control; under setting [6], 109 % of control; under setting [7], 104 % of control.
In the case of `O=S(=O)(O)O.[NH-]CC(N)=O.[NH-]CC(N)=O.[Ni+2]`, the T/C (dose: 6.25 mg/kg/injection, schedule: Q01DX009 (ip), vehicle: water) is 115 % of control; the T/C (dose: 12.5 mg/kg/injection, schedule: Q01DX009 (ip), vehicle: water) was 110 % of control; the T/C (dose: 12.5 mg/kg/injection, schedule: Q04DX003 (ip), vehicle: water) was 100 % of control; the T/C (dose: 25.0 mg/kg/injection, schedule: Q04DX003 (ip), vehicle: water) was 90 % of control; the T/C (dose: 50.0 mg/kg/injection, schedule: Q04DX003 (ip), vehicle: water) is 109 % of control.
As for `CC/C(C)=N\NC(=S)SC`, the T/C is, setting by setting: (dose: 3.13 mg/kg/injection, schedule: Q01DX009 (ip), vehicle: saline with Tween-80) 98 % of control; (dose: 6.25 mg/kg/injection, schedule: Q01DX009 (ip), vehicle: saline with Tween-80) 102 % of control; under setting [9], 102 % of control.
With `NC(=O)c1c(F)c(F)c(F)c(F)c1F`, the T/C (dose: 100.0 mg/kg/injection, schedule: Q01DX001 (ip), vehicle: saline with Tween-80) was 107 % of control; the T/C (dose: 200.0 mg/kg/injection, schedule: Q01DX001 (ip), vehicle: saline with Tween-80) is 115 % of control; the T/C (dose: 400.0 mg/kg/injection, schedule: Q01DX001 (ip), vehicle: saline with Tween-80) was 110 % of control.
For `O=P(NC1CCCC1)(N1CC1)N1CC1`, the T/C (dose: 1.56 mg/kg/injection, schedule: Q01DX009 (ip), vehicle: saline) was 116 % of control; the T/C (dose: 6.25 mg/kg/injection, schedule: Q01DX009 (ip), vehicle: saline) was 187 % of control and 220 % of control; the T/C (dose: 12.5 mg/kg/injection, schedule: Q01DX009 (ip), vehicle: saline) was 91 % of control and 104 % of control.
On to `CC(=O)O[C@@]1(C)C(=O)OCC2=CCN3CC[C@@H](OC(=O)[C@H](C)[C@]1(C)OC(C)=O)[C@@H]23`, for which the T/C is, setting by setting: (dose: 25.0 mg/kg/injection, schedule: Q01DX010 (ip), vehicle: carboxymethylcellulose (CMC)) 105 % of control; (dose: 50.0 mg/kg/injection, schedule: Q01DX010 (ip), vehicle: carboxymethylcellulose (CMC)) 90 % of control.
As to `CN1CCN=C1c1ccc(NC(=O)c2ccc(C(=O)Nc3ccc(C4=NCCN4C)cc3)c(N)c2)cc1`, the T/C is 150 % of control (dose: 0.5 mg/kg/injection, schedule: Q01DX009 (ip), vehicle: saline with Tween-80); 154 % of control (dose: 1.0 mg/kg/injection, schedule: Q01DX009 (ip), vehicle: saline with Tween-80); 181 % of control (dose: 2.0 mg/kg/injection, schedule: Q01DX009 (ip), vehicle: saline with Tween-80); 154 % of control (dose: 2.0 mg/kg/injection, schedule: Q01DX009 (ip), vehicle: saline); 166 % of control (dose: 3.0 mg/kg/injection, schedule: Q01DX009 (ip), vehicle: saline).
Take `CC(=O)N(O)CCCCCNC(=O)CCC(=O)N(O)CCCCCNC(=O)CCC(=O)N(O)CCCCCN`: the T/C runs as follows: under setting [10], 101 % of control; under setting [11], 102 % of control.
As to `CN(C)c1ccc(/C=C/c2ccnc3ccc(Cl)cc23)cc1`, the T/C was 100 % of control under setting [10] and 100 % of control under setting [12].
As for `CCOC(=O)C1NC(=S)NCC1=O` (configuration not stated), the T/C under setting [1] was 110 % of control and the T/C under setting [8] was 110 % of control.

Source of the values: PubChem BioAssay AID328 (DTP/NCI, 2004).
